Experimental data: patent publication US5492929A, “Condensed heterocyclic compounds useful for inhibiting acyl-CoA” (Takeda Chemical Industries, Ltd., priority 1992, dated 1996)

Experiments:
[1] = molecular target: T1, Acyl-CoA:cholesterol acyltransferase (ACAT) (Rattus norvegicus, UniProt Q7TQM4); test: ACAT inhibitory action: labeled cholesterol ester formation from [1-14C]oleoyl-CoA and endogenous cholesterol, small-intestinal mucosal microsomal enzyme; format: biochemical, rat (Sprague-Dawley); settings: 10^-6 M; read-out: ACAT inhibitory rate (%)
T1 construct: prepared from the microsomal fraction of mucosal cells from the small intestines of rats; from tissue; host or cells: microsomal fraction of small-intestinal mucosal cells, fasted 6-week-old male Sprague-Dawley rats
T1 sequence (Q7TQM4 1-524): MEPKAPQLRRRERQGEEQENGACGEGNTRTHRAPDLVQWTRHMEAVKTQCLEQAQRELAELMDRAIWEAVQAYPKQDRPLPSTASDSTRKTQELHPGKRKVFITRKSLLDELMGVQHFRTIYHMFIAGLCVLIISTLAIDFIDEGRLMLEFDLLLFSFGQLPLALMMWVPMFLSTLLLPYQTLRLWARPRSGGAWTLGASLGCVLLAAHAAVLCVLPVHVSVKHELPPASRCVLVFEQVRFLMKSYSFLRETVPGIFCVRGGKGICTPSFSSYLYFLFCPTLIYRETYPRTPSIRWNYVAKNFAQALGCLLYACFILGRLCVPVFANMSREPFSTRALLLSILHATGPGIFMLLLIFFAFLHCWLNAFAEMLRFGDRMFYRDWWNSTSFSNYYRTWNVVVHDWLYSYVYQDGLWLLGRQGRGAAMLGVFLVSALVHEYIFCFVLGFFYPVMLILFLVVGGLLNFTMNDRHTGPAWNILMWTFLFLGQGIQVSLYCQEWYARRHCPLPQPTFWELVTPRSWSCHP
Description: In accordance with the method disclosed by Heider et al. on Journal of Lipid Research, 24, p.1127 (1983), an enzyme sample ACAT was prepared from the microsomal fraction of mucosal cells from the small intestines of rats (6-week old male Sprague-Dawleys) fasted for 20 hours.
The ACAT activity was determined by, in accordance with the method disclosed by Helgerud et al. on Journal of Lipid Research 22, p.271 (1981), measuring the amount of labeled cholesterol ester from [1-^14 C]oleoyl-CoA and endogenous cholesterol.
(1) In Table 2, the labeled cholesterol ester formation inhibitory rate (%) determined when supplemented with 10^-6 M of a test compound (a representative one of the compounds obtained in the following Examples 1 to 24) is shown as the index of ACAT inhibitory activity.

[2] = molecular target: T1, Acyl-CoA:cholesterol acyltransferase (ACAT); test: as above; format: biochemical, rat (Sprague-Dawley); settings: 10^-8 M; read-out: ACAT inhibitory rate (%) (in parentheses)
[3] = system: hypercholesterolemic ICR mice; test: Hypocholesterolemic (cholesterol-lowering) activity in mice fed a high cholesterol-cholic acid diet; format: in vivo, mouse (ICR); settings: serum, vs control
Description: Groups of 6 ICR mice (2 subgroups of 3 mice) were made hypercholesterolemic by being fed a high cholesterol-cholic acid diet for 7 days and administered with test compounds orally on the last two days. One-half of the total dose was given on day 6 followed by the other half on day 7. After fasting overnight (16 hours after the last dose), the animals were sacrificed and sera were collected together for the each subgroup for measuring the levels of cholesterol and heparin precipitating lipoproteins (HPL). Both cholesterol and HPL levels were measured with autoanalyzer by the enzymatic CHOD-PAP method for the former and by the turbidimetric method of Shurr et. al. [in C. E. Dau ed. Atherosclerosis Drug Discovery, Plenum Publishing, New York, pp.215-229 & 231-249, 1976.] for the latter.

[4] = 30 mg/kg po (total dose, halves on day 6 and 7)
[5] = 1 mg/kg po (total dose, halves on day 6 and 7)
[6] = 10 mg/kg po (total dose, halves on day 6 and 7)

SMILES | inhibition at 1 µM [1] [%] | inhibition at 0.01 µM [2] [%] | further results
CCOc1cccc(OCC)c1NC(=O)Nc1oc2ccc(Cl)cc2c1-c1ccccc1C [Example 20, [5-Chloro-3-(2-methylphenyl)-2-benzofuryl]-N'-(2,6-diethoxyphenyl)urea] | 99.4 | 39.9 | –
Cc1cc(C)c(NC(=O)Cc2oc3ccc(Cl)cc3c2-c2ccccc2C)c(C)c1 [Example 3, 5-Chloro-3-(2-methylphenyl)-N-(2,4,6-trimethylphenyl)-2-benzofuranacetamide] | 90.8 | – | –
Cc1ccccc1-c1c(CC(=O)Nc2c(C(C)C)cccc2C(C)C)oc2ccc(Cl)cc12 [Example 1, N-[2,6-Bis(1-methylethyl)phenyl]-5-chloro-3-(2-methylphenyl)-2-benzofuranacetamide] | 99.2 | 93.7 | Reduction % HPL (heparin precipitating lipoproteins) [3, 4]: 27%; Reduction % cholesterol [3, 4]: 32%
Cc1ccccc1-c1c(CC(=O)Nc2c(F)cc(F)cc2F)oc2ccc(Cl)cc12 [Example 17, 5-Chloro-3-(2-methylphenyl)-N-(2,4,6-trifluorophenyl)-2-benzofuranacetamide] | 92.9 | – | –
Cc1ccccc1-c1c(NC(=O)Nc2c(C(C)C)cccc2C(C)C)oc2ccc(Cl)cc12 [Example 11, N-[2,6-Bis(1-methylethyl)phenyl]-N'-[5-chloro-3-(2-methylphenyl)-2-benzofuryl]urea] | 99.1 | 92.2 | Reduction % HPL (heparin precipitating lipoproteins) [3, 5]: 27%; Reduction % cholesterol [3, 5]: 28%; Reduction % HPL (heparin precipitating lipoproteins) [3, 6]: 38%; Reduction % cholesterol [3, 6]: 31%
CC(C)c1cccc(C(C)C)c1NC(=O)Cc1oc2ccc(Cl)cc2c1-c1ccccc1 [Example 4, N-[2,6-Bis(1-methylethyl)phenyl]-5-chloro-3-phenyl-2-benzofuranacetamide] | 99 | – | –
Cc1ccccc1-c1c(NC(=O)Nc2c(F)cc(F)cc2F)oc2ccc(Cl)cc12 [Example 18, N-[5-Chloro-3-(2-methylphenyl)-2-benzofuryl]-N'-(2,4,6-trifluorophenyl)urea] | 90.1 | – | –

Continued, in another order:

inhibition at 1 µM [1] [%] | inhibition at 0.01 µM [2] [%] | SMILES | further results
98.1 | 50.3 | CCOc1cccc(OCC)c1NC(=O)Cc1oc2ccc(Cl)cc2c1-c1ccccc1C [Example 16, 5-Chloro-N-(2,6-diethoxyphenyl)-3-(2-methylphenyl)-2-benzofuranacetamide] | –
99 | 28.8 | COc1cccc(OC)c1NC(=O)Nc1oc2ccc(Cl)cc2c1-c1ccccc1C [Example 19, N-[5-Chloro-3-(2-methylphenyl)-2-benzofuryl]-N'-(2,6-dimethoxyphenyl)urea] | –
92.3 | – | Cc1ccccc1-c1c(CC(=O)Nc2c(C(C)C)cccc2C(C)C)n(C)c2ccc(Cl)cc12 [Example 7, N-[2,6-Bis(1-methylethyl)phenyl]-5-chloro-1-methyl-3-(2-methylphenyl)-2-indoleacetamide] | –
98.8 | – | COc1cccc(OC)c1NC(=O)Cc1oc2ccc(Cl)cc2c1-c1ccccc1C [Example 2, 5-Chloro-N-(2,6-dimethoxyphenyl)-3-(2-methylphenyl)-2-benzofuranacetamide] | –
93.2 | – | COc1cccc(OC)c1NC(=O)Cc1oc2ccc(Cl)cc2c1-c1ccccc1 [Example 5, 5-Chloro-N-(2,6-dimethoxyphenyl)-3-phenyl-2-benzofuran acetamide] | –
91.2 | – | COc1cccc(OC)c1NC(=O)Cc1c(-c2ccccc2C)c2cc(Cl)ccc2n1C [Example 8, 5-Chloro-N-(2,6-dimethoxyphenyl)-1-methyl-3-(2-methylphenyl)-2-indoleacetamide] | –
